The test system of the assay is episomal HPV-16 DNA in W12-20850 cells. In words: W-12 cellular assay: episomal HPV-16 DNA quantified by hybrid capture in W12-20850 cells. It counts as cell-based, HPV16. To be noted: Human papillomavirus 16, 96 h, four days incubation, inhibition of episomal HPV-16 DNA relative to untreated control. The method, then:
Compounds of the current invention are believed useful in the treatment and/or prophylaxis of conditions and diseases associated with HPV infection. Activity mediated through HPV was determined using the following W-12 cellular assay. The […] cell line used contains HPV16 DNA and was derived from a low-grade cervical dysplasia tissue by Margaret Stanley and subsequently clonally selected by Paul Lambert (University of Wisconsin). One of these clones, […]-20850, contains 1000 copies of episomal HPV16 DNA and was used in the cell-based assay. […]-20850 cells were routinely cultured with a gamma-irradiated (6000 rads) feeder layer of 3T3 cells. Assays, however, were run in the absence of a 3T3 feeder layer. […]-20850 and 3T3 cells were routinely split when they were sub-confluent. […]-20850 were grown in […] Medium which is constituted of 25% DMEM (Gibco BRL, Cat # 12430-047), 75% F12 Media (Gibco BRL, Cat # 11765-021) and 2.5% FBS. The additives include […] Adenine (Sigma, Cat # A-9795), […] Hydrocortisone (Calbiochem, Cat # 386698), […] Bovine Insulin (Sigma, Cat # 1-1882), 8.4 ng/ml cholera toxin (Fluka, Cat # 26694) and 10 ng/ml EGF (Invitrogen, Cat # 13247-051). 3T3 cells were grown in DMEM containing 10% FBS. Cell lines were incubated at 37° C., in the presence of 5% CO2. For the assay, […]-20850 cells were seeded into a 96 well plate-containing compound. Plates were incubated at 37° C. in the presence of 5% CO2, for four days. On the fourth day, cells were lysed and the amount of episomal HPV-16 DNA was quantified using a non-radioactive hybrid capture technique with HPV-16 specific capture and detection probes. The percent inhibition relative to untreated control cells was then determined. The hybrid capture assay is run in a 96 well plate format. Hybridization plates (Nunc Maxisorb Cat # 450320) were coated with a mixture of capture probe and ReactiBind solution for at least 4 hours and then washed with 0.2×SSC, 0.05% Tween-20 (SSCT) prior to blocking with 150 μl/well of 0.2 N NaOH, 1% Igepal, 10 mg/ml hsDNA for 6-8 hours. The hybridization was carried out by mixing 27 μl of lysed cells with 45 μl of denatured detection probe in 6M guanidine isothiocyanate. To prevent evaporation, 50 μl of mineral oil was added to each well. The plate was then heated to 90° C. for 6.5 minutes and the hybridization continued at 42° C. overnight. Assay plates were washed 6 times with SSC/T. Anti-digoxigenin HRP-conjugated Ab (Boehringer Mannheim 1207733, 1:5000) was incubated in the wells for 30 min at room temperature and washed with PBS/0.05% Tween-20. SuperSignal LBA substrate (Pierce Cat # 37070) was added, and chemiluminescence was measured using Wallac 1420 Victor plate reader.
By IC50 is commonly meant the midpoint of a concentration-inhibition curve. Read a low IC50 as inhibition by little substance. In turn, `COC(=O)N1CCc2c([nH]c3ccc(Cl)cc23)C1c1ccc(C)cc1` (stereo not drawn) [Example 2, Methyl 6-chloro-1-(4-methylphenyl)-1,3,4,9-tetrahydro-2H-β-carboline-2-carboxylate] registered an IC50 of 68 nM.
In the case of `Cc1ccc(C2c3[nH]c4ccc(Cl)cc4c3CCN2C(=O)CCc2ccccc2)cc1` (stereo not drawn) [Example 3, 6-Chloro-1-(4-methylphenyl)-2-(3-phenylpropanoyl)-2,3,4,9-tetrahydro-1H-β-carboline] it was 60 nM.
The compound `Cc1ccc(C2c3[nH]c4ccc(Cl)cc4c3CCN2C(=O)OCc2ccccc2)cc1` (stereo not drawn) [Example 4, Phenylmethyl 6-chloro-1-(4-methylphenyl)-1,3,4,9-tetrahydro-2H-β-carboline-2-carboxylate] yielded a half-inhibitory concentration (IC50) of 22 nM.
`COC(=O)N1CCc2c([nH]c3ccc(F)cc23)C1c1ccc(C)cc1` (stereo not drawn) [Example 6, Methyl 6-fluoro-1-(4-methylphenyl)-1,3,4,9-tetrahydro-2H-β-carboline-2-carboxylate] registered an IC50 of 365 nM.
On to `Cc1ccc(C2c3[nH]c4ccc(F)cc4c3CCN2C(=O)CCc2ccccc2)cc1` (stereo not drawn) [Example 7, 6-Fluoro-1-(4-methylphenyl)-2-(3-phenylpropanoyl)-2,3,4,9-tetrahydro-1H-β-carboline], for which the IC50 turned out to be 216 nM.
Compound `Cc1ccc(C2c3[nH]c4ccc(F)cc4c3CCN2C(=O)OCc2ccccc2)cc1` (stereo not drawn) [Example 8, Phenylmethyl 6-fluoro-1-(4-methylphenyl)-1,3,4,9-tetrahydro-2H-β-carboline-2-carboxylate] gave an IC50 of 446 nM.
On to `COC(=O)N1CCc2c([nH]c3ccc(Br)cc23)C1c1ccc(C)cc1` (stereo not drawn) [Example 10, Methyl 6-bromo-1-(4-methylphenyl)-1,3,4,9-tetrahydro-2H-β-carboline-2-carboxylate], for which the IC50 was determined as 11 nM.
Consider `Cc1ccc(C2c3[nH]c4ccc(Br)cc4c3CCN2C(=O)CCc2ccccc2)cc1` (stereo not drawn) [Example 11, 6-Bromo-1-(4-methylphenyl)-2-(3-phenylpropanoyl)-2,3,4,9-tetrahydro-1H-β-carboline], for which the IC50 was found to be 20 nM.
Consider `Cc1ccc(C2c3[nH]c4ccc(Br)cc4c3CCN2C(=O)OCc2ccccc2)cc1` (stereo not drawn) [Example 12, Phenylmethyl 6-bromo-1-(4-methylphenyl)-1,3,4,9-tetrahydro-2H-β-carboline-2-carboxylate], for which inhibition was half-maximal at 14 nM (IC50).
`Cc1ccc([C@@H]2c3[nH]c4ccc(Cl)cc4c3CCN2C(=O)CCc2ccccc2)cc1` [Example 13, (1R)-6-Chloro-1-(4-methylphenyl)-2-(3-phenylpropanoyl)-2,3,4,9-tetrahydro-1H-β-carboline] showed an IC50 of 8000 nM.
`Cc1ccc([C@H]2c3[nH]c4ccc(Cl)cc4c3CCN2C(=O)CCc2ccccc2)cc1` [Example 14, (1S)-6-Chloro-1-(4-methylphenyl)-2-(3-phenylpropanoyl)-2,3,4,9-tetrahydro-1H-β-carboline] registered an IC50 of 15 nM.
With `Cc1ccc(C2c3[nH]c4ccccc4c3CCN2S(=O)(=O)Cc2ccccc2)cc1` (stereo not drawn) [Example 15, 1-(4-Methylphenyl)-2-[(phenylmethyl)sulfonyl]-2,3,4,9-tetrahydro-1H-β-carboline], the IC50 stood at 7000 nM.
In the case of `Cc1ccc(C2c3[nH]c4ccccc4c3CCN2S(C)(=O)=O)cc1` (stereo not drawn) [Example 16, 1-(4-Methylphenyl)-2-(methylsulfonyl)-2,3,4,9-tetrahydro-1H-β-carboline] it was 24000 nM; in that of `Cc1ccc(C2c3[nH]c4ccccc4c3CCN2S(=O)(=O)c2ccc(N)cc2)cc1` (stereo not shown) [Example 17, (4-{[1-(4-Methylphenyl)-1,3,4,9-tetrahydro-2H-b-carbolin-2-yl]sulfonyl}phenyl)amine], 10000 nM; in that of `CC(=O)N1CCc2c([nH]c3ccccc23)C1c1ccc(C)cc1` (stereo not drawn) [Example 18, 2-Acetyl-1-(4-methylphenyl)-2,3,4,9-tetrahydro-1H-β-carboline], 5000 nM.
`Cc1ccc(C2c3[nH]c4ccccc4c3CCN2C(=O)CCc2ccccc2)cc1` (stereo not drawn) [Example 19, 1-(4-Methylphenyl)-2-(3-phenylpropanoyl)-2,3,4,9-tetrahydro-1H-β-carboline] had an IC50 of 1000 nM.
